Tested on: Human CD34+ cells
Test: In vitro development of human NK cells (hCD56+ hCD45+) from CD34+ umbilical cord blood progenitor cells
Assay type: cell-based
Description: FIG. 9: Human CD34^+ cells were cultured with the addition of 5 μM SR8278 at Day 4. At Day 14 and 16, percentage of hCD56^+ hCD45^+ (markers for human NK cells) cells was quantified using flow cytometry. (A) Graph showing percentage of hCD56^+ hCD45^+ cells compared to the ‘No drug’ control in different conditions. (B) Flow cytometry gating strategy for identification of human NK cells. (C) Representative flow cytometry results with percentage of NK cells shown. Results were averaged from one experiments with six repeats each and the error bars represent the mean+SD.
The hypothesis that SR8278 increases NK cells production would not have any potential therapeutic value if it was not also true for human NK cell production. Therefore, the effect of SR8278 on human NK cell production from human HPCs was examined. Human HPCs were obtained as the CD34^+ population purified from umbilical cord blood from collaborators at the Anthony Nolan Research Institute, London. Human NK cell development goes through a similar developmental pathway to mouse NK cell development. By contrast with mouse HPC culture, human CD34^+ cells were cultured straight onto EL08-1D2 stromal cells in the presence of IL-3, IL-7, FIt3L, SCF and IL-15 cytokines for 14 and 16 days before harvesting and analysis by flow cytometry. To try to optimise human NK cell production, 5 or 10 μM SR8278 were added on either day 2, 4 or 6 of the culture.
OP9-GFP stromal cells were cultured in Iscove's Modified Dulbecco's Media (IMDM) (Sigma Aldrich) supplemented with 20% Fetal Bovine Serum (FBS), and Penicillin/[…] (P/S). For experiments done on 96-well plates, OP9 stromal cells were plated at the concentration of 2000 cells/well and incubated at 37° C., 5% CO2 for 1 day before the addition of HPCs. For experiments done on 24-well plates, OP9 stromal cells were plated at the concentration of 4000 cells/well and were incubated at 37° C. 5% CO2 for 2 days prior to addition of HPCs. EL08.1D2 stromal cells were cultured in Minimum Essential Medium Eagle—Alpha Modification (Alpha-MEM) supplemented with 50% Myelocult M5300 (Stem Cell Technologies), 7.5% FBS, 50 μM β-Mercaptoethanol, 1 μM Hydrocortisone and 1% P/S (Sigma Aldrich). For human CD34^+ progenitor cell experiments, EL08.1D2 were irradiated at 3000 rads/30 Gy and plated in 96-well EmbryoMax Gelatin (Millipore)-coated plates at the concentration of 20,000 cells/well. There were cultured at 32° C., 5% CO2 overnight, before CD34^+ cells were transferred onto them.
CD34^+ umbilical cord blood progenitor cells were provided by Anthony Nolan Research Institute, University College London. These cells were isolated from whole cord blood and were cryopreserved in liquid nitrogen for storage and transport. Cells were thawed, counted and then plated on EL08.1D2 plates prepared previously at a concentration of 1000 cells/well in human NK cells differentiation medium (Alpha-MEM plus 20% Human AB serum (Invitrogen), 50 μM β-Mercaptoethanol and 1% P/S along with 5 ng/ml human-IL-3 (Peprotech), 20 ng/ml human-IL-7 (Peprotech), 10 ng/ml human-Flt3-L (Peprotech), 20 ng/ml human-SCF (Peprotech) and 10 ng/ml human-IL-15 (Peprotech). Note that human-IL-3 is only needed for the first week of culture. Cells were left in the culture at 37° C., 5% CO2 for 14 or 16 days with a change of human NK differentiation medium at day 7 and 12.
Cells to be analysed by flow cytometry were passed through 40 μm cell strainers to remove clumps and washed with PBS buffer, centrifuged at 800 g for 2 minutes and resuspended in 100 μl fluorescent activated cell sorting (FACS) buffer (PBS plus 1% BSA) with appropriate fluorochrome conjugated antibodies at a dilution of 1 in 300. […]

## CCOC(=O)C1Cc2ccccc2CN1C(=O)c1ccc(SC)s1 (stereo not drawn) [SR8278, 1,2,3,4-Tetrahydro-2-[[5-(methylthio)-2-thienyl]carbonyl]-3-isoquinolinecarboxylic acid ethyl ester]
5 μM added at Day 4, harvested at Day 14
  change of percentage of NK cells versus 'No drug' control: almost tripled
5 μM added at Day 4, harvested at Day 14, 'No drug' control 5.53%
  percentage of NK cells: 13.7%
5 μM added at Day 4, harvested at Day 16
  change of percentage of NK cells versus 'No drug' control: doubled
5 μM added at Day 4, harvested at Day 16, 'No drug' control 21.8%
  percentage of NK cells: 44.3%
5 μM added on Day 2
  NK cell number: clear increase
Summary in Discussion
  human NK cell development from human HPCs cultured in vitro: significantly increase
